From patent publication US8084623B2, “Pyrrolidinyl and piperidinyl ketone derivatives and uses thereof” (Roche Palo Alto LLC, priority 2006, dated 2011)

| SMILES | melting point |
| --- | --- |
| CCCC1(C(=O)c2cc(F)c(N)c(Cl)c2)CCNC1 (centres unmarked) | 65 to 67 °C |
| O=C(c1ccc2[nH]ncc2c1)C1(CC2CC2)CCCN1 (centres unmarked) | 291 to 292 °C |
| O=C(c1ccc2[nH]ncc2c1)C1(CC2CCCC2)CCCN1 (centres unmarked) | > 300 °C |
| CC(C)CC1(C(=O)c2cc(F)c(Cl)c(Cl)c2)CCNCC1 | 166 to 167 °C |
| CCCC1(C(=O)c2ccc(O)c(Cl)c2)CCCNC1 (centres unmarked) | 265.6 to 266.9 °C |
| COCC1(C(=O)c2ccc3[nH]ccc3c2)CCNC1 (centres unmarked) | 59.1 to 61 °C |

Second part, the compound after the results:

| melting point | SMILES |
| --- | --- |
| 252.6 to 254 °C | CCCC1(C(=O)c2ccc(Cl)c(Cl)c2)CCN1 (centres unmarked) |
| 59 to 60 °C | CCCC1(C(=O)c2ccc(Cl)c(Cl)c2)CNC1 |
